# Reference: patent US6441036B1 (priority 1998, dated 2002)
# Columns and labels:
# [1] = Euglycemic hyperinsulinemic clamp, high fat diet induced insulin resistance (Example 12); assay type: in vivo, Wistar Charles River rats; conditions: HF diet supplemented with TTA, 21 days; 45-90 minutes of clamp
# Experimental: After 21 days on their respective diets (see above), the rats were anaesthetised by injection of xylazine hydrochloride (Rometar SPOFA, Prague, Czech Republic; 10 mg/ml) and ketamine hydrochloride (Narkamon SPOFA, Prague, Czech republic; 75 mg/ml), and fitted with chronic carotid artery and jugular vein cannulas as described by Koopmans et al. (Koopmans, S. J., et al., Biochim Biophys Acta, 1115, […] 1992.). The cannulated rats were allowed to recover for two days after surgery before the clamping studies which were carried out according to Kraegen et al. (Kraegen, E. W., et al., Am J Physiol, 248, E353-E362 1983.). Thus, on the third day after surgery, unrestrained conscious rats were given a continuous infusion of porcine insulin (Actrapid, Novo Nordisk, Denmark) at a dose of 6.4mU per kg per min to achieve plasma insulin levels in the upper physiological range. The arterial blood glucose concentration was clamped at the basal fasting level, by variable infusion of a 30% w/v glucose solution (Leciva, Prague, Czech Republic). […]
# Rats weighing 330±20 g were divided into 3 groups (n=9) and fed with three different diets: standard rat chow, high fat diet (HF) and HF supplemented with TTA. […] The glucose infusion rate (GIR) was determined from the period of the clamp where glycemia got stabilised, i.e. between 45-90 minutes after clamp commencement. […]
# [2] = Blood insulin and glucose in 4 month old obese Zucker (fa/fa) rats (Example 13); assay type: in vivo; conditions: standard chow with 0.15% TTA, 21 days
# Experimental: Glucose (GLU, Boehringer Mannheim, Germany), free fatty acids (NEFA, C ACS-ACOD kit; Wako Chemicals, Dalton, USA) and b-hydroxybutyrate (310-A kit; Sigma Diagnostics Inc., St. Louis, USA) concentrations were measured using enzymatic methods. Insulin concentrations were determined with radioimmunoassay by (CIS bio International, Gif sur Yvette, France) using rat insulin as standard in the Zucker rats. In the Wistar Charles River rats, plasma glucose concentrations were measured with the aid of Beckman Glucose Analyzer (Fullerton, Calif., USA). Plasma insulin levels were measured using a RIA kit from Linco Research Inc. (St. Charles, Mo., USA). Phospholipids were measured by the enzymatic method of bioMérieux, Marcy-l{grave over ( )}Etoile, France, Triacylglycerol by the Technicon Method no. SA4-0324L90, USA and Cholesterol by the Technicon Method no. SA4-0305L90, USA.
# The rats were given a standard chow diet, either with (n=5) or without (n=6) 0.15% TTA. Following 21 days of treatment, blood was collected and the levels of insulin and glucose measured. Data are means±S.D.
# [3] = Weight reduction in dogs (Example 10); assay type: in vivo; conditions: male dogs, 500 mg/kg/day orally in capsules
# Experimental: 3 male dogs (4-6 months old) were housed singly during the days. Each animal was offered 400g of SQC Diet A each morning after dosing and any residue diet was removed in the afternoon. The drug was administered orally in capsules once daily for 28 days.
# [4] = system: mitochondrial β-oxidation; assay: Liver fatty acid oxidation in treated obese Zucker rats (Example 16); assay type: in vivo, obese Zucker (fa/fa) rats; conditions: palmitoyl-CoA and palmitoyl-L-carnitine as substrates; chow with 0.15% TTA, 21 days
# Experimental: Freshly isolated livers from individual old Zucker rats, were homogenised in ice-cold sucrose buffer (0.25 M sucrose, 10 mM HEPES (pH 7.4) and 2 mM EDTA). Post-nuclear and mitochondrial fractions were prepared using preparative differential centrifugation according to DeDuve et al. (De Duve, C., et al., Biochem. J., 60, 604-617 1955.) Modifications, purity and yield were as described earlier (Garras, A., et al., Biochim. Biophys. Acta, 1255, 154-160 1995.). Acid soluble products were measured in post-nuclear and mitochondrial enriched fractions, using [1-^14C]-palmitoyl-CoA and [1-^14C]-palmitoyl-L-carnitine (Radio-chemical Centre, Amersham, England) as substrates as described earlier (Willumsen, N., et al., J. Lipid Res., 34, 13-22 1993. Carnitine palmitoyltransferase-I and -II activities were measured in the post-nuclear and mitochondrial fractions essentially as described by Bremer (Bremer, J., Biochim. Biophys. Acta, 665, 628-631 1981.) and 3-hydroxy-3-methylglutharyl-CoA synthase was measured according to Clinkenbeard et al. (Clinkenbeard, K. D., et al., J. Biol. Chem, 250, 3108-3116 1975.) in the mitochondrial fractions.
# Obese Zucker (fa/fa) rats were given a standard chow either with (n=6) or without (n=5) 0.15% TTA. Following 21 days of treatment, rats were killed by cervical dislocation and the livers were removed. […] Values are expressed as the mean±S.D.
# [5] = system: mouse lymphoma cells, L5178Y; assay: Mutagenicity test in mouse lymphoma cells L5178Y; assay type: cell-based; conditions: concentration 2.5-50 mg/ml
# Text: Tests for mutagenic activity have been performed by Covance Laboratories Limited, England. […] Furthermore, TTA was not mutagenic when tested in mouse lymphoma cells […] L5178Y.
substance,measurement,setting,value
Tetradecylthioacetic acid [TTA],Glucose infusion rate (GIR) in clamp (FIG. 4),[1],fully normal
same,Blood glucose concentration (FIG. 6),[2],reduces
same,Blood insulin concentration (FIG. 6),[2],reduces
same,Mean body weight,[3]; week 0,9.22 kg
same,Mean body weight,[3]; week 1,8.95 kg
same,Mean body weight,[3]; week 2,8.75 kg
same,Mean body weight,[3]; week 3,8.58 kg
same,Mean body weight,[3]; week 4,8.50 kg
same,Increase of liver fatty acid oxidation (FIG. 8A),[4],more than 7 fold
same,Mutagenicity,[5],not mutagenic
